Data set [1] deals with T1, bovine sperm-derived β-D-galactosidase (Bos taurus, UniProt Q58D55).
T1 construct: bovine sperm-derived β-D-galactosidase (manufactured by Signa); purchased Sigma; host or cells: bovine sperm (tissue-derived)
T1 sequence (Q58D55 28-653): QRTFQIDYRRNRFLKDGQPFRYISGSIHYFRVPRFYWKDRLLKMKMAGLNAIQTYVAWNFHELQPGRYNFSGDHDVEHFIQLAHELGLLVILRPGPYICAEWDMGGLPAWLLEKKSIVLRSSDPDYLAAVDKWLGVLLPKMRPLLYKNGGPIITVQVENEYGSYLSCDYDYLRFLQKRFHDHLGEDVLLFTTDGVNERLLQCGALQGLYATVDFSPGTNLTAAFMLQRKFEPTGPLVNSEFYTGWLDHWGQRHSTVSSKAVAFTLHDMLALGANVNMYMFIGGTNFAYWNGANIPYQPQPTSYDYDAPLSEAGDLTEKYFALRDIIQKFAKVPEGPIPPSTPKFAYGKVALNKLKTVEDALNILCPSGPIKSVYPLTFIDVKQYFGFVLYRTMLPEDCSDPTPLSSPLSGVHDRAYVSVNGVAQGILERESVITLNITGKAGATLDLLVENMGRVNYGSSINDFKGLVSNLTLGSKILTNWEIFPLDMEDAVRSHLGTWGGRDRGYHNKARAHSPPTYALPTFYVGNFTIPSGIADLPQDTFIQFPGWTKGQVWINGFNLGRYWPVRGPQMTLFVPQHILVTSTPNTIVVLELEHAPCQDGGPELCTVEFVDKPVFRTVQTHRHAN
The data set can be described thus: Measurement of acidic β-galactosidase inhibitory activity (4-methylumbelliferyl substrate, fluorescence). The data set is classed as biochemical. The following applies: 0.2 M acetate buffer pH 4.4, 25° C., 30 minutes; read-out: 50% Inhibition concentration (IC50 value). The method, then:
Each of Substances A-2 to 7 of the invention dissolved in water for injection, to which DMSO had been added and dissolved therein, if necessary, was diluted with a 0.2 M acetate buffer (pH 4.4) to give a concentration of 0.05, 0.125, 0.25, 0.5, 1.0, 2.5 or 5.0 μM and added at 25 μl into a 96 well microplate. Then, a 0.2 M acetate buffer (pH 4.4) solution of bovine sperm-derived β-D-galactosidase (manufactured by Signa) was added at 25 μl, and 4-methylumbelliferyl-β-D-galactopyranoside (10 μM) was further added as a fluorescence substrate at 50 μl, followed by incubation at 25° C. for 30 minutes. Then, the reaction was stopped by adding 100 μl of 2 M Na2CO3, and an amount of 4-methylumbelliferone released by the enzyme reaction (fluorescence intensity) was measured (excitation wavelength 355 nm, measuring wavelength 460 nm) by a fluorescence reader (product name; ARVOSX manufactured by WALLAC). An amount of the 4-methylumbelliferone released at the time of not adding the inhibitor was defined as 100%, and quantitative change in the 4-methylumbelliferone formed by addition of each substance to be evaluated was relatively evaluated. In addition, as the 50% inhibition concentration (IC50 value), the concentration of each substance of the invention which reduces 50% of the concentration of 4-methylumbelliferone at the time of un-adding each substance of the invention was calculated from an inhibition curve.

The nature of data set [2]: Solubility test in distilled water. In kind it is physicochemical. The following applies: thermodynamic from solid.

Structures are written as SMILES.

This is an account of results in US7485755B2, “Acid addition salt of carbasugar amine derivative” (Seikagaku Corporation, priority 2003, dated 2009).

The solubility is the concentration that dissolves in the medium under given conditions. A lower solubility goes with a poorly soluble substance.

Turning to `CCCCCCCCCCCCCCCCCCN[C@@H]1C=C(CO)[C@H](O)[C@H](O)[C@H]1O` [Substance A-6], in data set [1], the IC50 turned out to be 1790 nM. Take `CCCCCCCCCCCCCCN[C@@H]1C=C(CO)[C@H](O)[C@H](O)[C@H]1O` [Substance A-5]: the IC50 in data set [1] amounted to 2690 nM. For the compound `CCCCCCCCN[C@@H]1C=C(CO)[C@H](O)[C@H](O)[C@H]1O` [Substance A-2], the IC50 in data set [1] came out at 476 nM. For the same compound, the solubility in data set [2] (distilled water, water, 24° C.) is no less than 300 mg/mL. On to `CCCCCCCCCCCCN[C@@H]1C=C(CO)[C@H](O)[C@H](O)[C@H]1O` [Substance A-4], for which the IC50 in data set [1] was 1430 nM. In the case of `CCCCCCCCCCN[C@@H]1C=C(CO)[C@H](O)[C@H](O)[C@H]1O` [Substance A-3], in data set [1], the IC50 is 301 nM.

`CCCCCCCCNC1C=C(CO)C(O)C(O)C1O` (stereo not shown) [Substance B-2] returned a solubility in data set [2] (19° C., distilled water added to 5.4 mg of sample) greater than 108 mg/mL.
